PubChem BioAssay (NCI)
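Cultured in 96-well plates, cells were exposed to test compound for 48 hours across five concentrations. At the GI50, growth is halved. TGI denotes the concentration required for complete inhibition of growth.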

Key:
Assay in all cases: growth of human tumour cells (NCI), 48 h
[1] = system: 786-0 renal
[2] = system: A498 renal
[3] = system: A549 NSCLC
[4] = system: ACHN renal
[5] = system: BT-549 breast
[6] = system: CAKI-1 renal
[7] = system: CCRF-CEM leukemia
[8] = system: COLO 205 colon
[9] = system: DU-145 prostate
[10] = system: EKVX NSCLC
[11] = system: HCC-2998 colon
[12] = system: HCT-116 colon
[13] = system: HCT-15 colon
[14] = system: HL-60(TB) leukemia
[15] = system: HOP-62 NSCLC
[16] = system: HOP-92 NSCLC
[17] = system: HS 578T breast
[18] = system: HT29 colon
[19] = system: IGROV1 ovarian
[20] = system: KM12 colon
[21] = system: LOX IMVI melanoma
[22] = system: M14 melanoma
[23] = system: MALME-3M melanoma
[24] = system: MCF7 breast
[25] = system: MDA-MB-231 breast
[26] = system: MOLT-4 leukemia
[27] = system: NCI-H226 lung
[28] = system: NCI-H23 lung
[29] = system: NCI-H460 lung
[30] = system: NCI-H522 lung
[31] = system: OVCAR-3 ovarian
[32] = system: OVCAR-4 ovarian
[33] = system: OVCAR-5 ovarian
[34] = system: OVCAR-8 ovarian
[35] = system: PC-3 prostate
[36] = system: RPMI-8226 leukemia
[37] = system: RXF 393 renal
[38] = system: SF-268 CNS
[39] = system: SF-539 CNS
[40] = system: SK-MEL-2 melanoma
[41] = system: SK-MEL-28 melanoma
[42] = system: SK-MEL-5 melanoma
[43] = system: SK-OV-3 ovarian
[44] = system: SN12C renal
[45] = system: SNB-19 CNS
[46] = system: SNB-75 CNS
[47] = system: SR leukemia
[48] = system: SW-620 colon
[49] = system: T-47D breast
[50] = system: TK-10 renal
[51] = system: U251 CNS
[52] = system: UACC-257 melanoma
[53] = system: UACC-62 melanoma
[54] = system: UO-31 renal

O=C1Nc2ccccc2/C1=C\c1c(-c2ccccc2)nc2ccccn12
GI50 [1]: 5.98 µM
TGI [1]: 81.5 µM
GI50 [2]: 5.87 µM
TGI [2]: > 100 µM
GI50 [3]: 3.9 µM
TGI [3]: 60 µM
GI50 [4]: 4.45 µM
TGI [4]: > 100 µM
GI50 [5]: 3.97 µM
TGI [5]: 50.9 µM
GI50 [6]: 2.7 µM
TGI [6]: > 100 µM
GI50 [7]: 2.57 µM
TGI [7]: > 100 µM
GI50 [8]: 2.21 µM
TGI [8]: 5.58 µM
GI50 [9]: 4.46 µM
TGI [9]: > 100 µM
GI50 [10]: 3.1 µM
TGI [10]: > 100 µM
GI50 [11]: 4.56 µM
TGI [11]: 34.8 µM
GI50 [12]: 3.61 µM
TGI [12]: 47 µM
GI50 [13]: 3.6 µM
TGI [13]: > 100 µM
GI50 [14]: 2.59 µM
TGI [14]: 6.47 µM
GI50 [15]: 2.7 µM
TGI [15]: 15.5 µM
GI50 [16]: 3.98 µM
TGI [16]: 50.4 µM
GI50 [17]: 9.31 µM
TGI [17]: > 100 µM
GI50 [18]: 3.05 µM
TGI [18]: 13.9 µM
GI50 [19]: 2.59 µM
TGI [19]: 20.2 µM
GI50 [20]: 2.55 µM
TGI [20]: > 100 µM
GI50 [21]: 4.34 µM
TGI [21]: > 100 µM
GI50 [22]: 2.48 µM
TGI [22]: 7.8 µM
GI50 [23]: 3.88 µM
TGI [23]: > 100 µM
GI50 [24]: 3.52 µM
TGI [24]: > 100 µM
GI50 [25]: 7.29 µM
TGI [25]: > 100 µM
GI50 [26]: 4.2 µM
TGI [26]: > 100 µM
GI50 [27]: 4.5 µM
TGI [27]: 57.8 µM
GI50 [28]: 3.77 µM
TGI [28]: > 100 µM
GI50 [29]: 3.24 µM
TGI [29]: 12.9 µM
GI50 [30]: 1.83 µM
TGI [30]: 7.65 µM
GI50 [31]: 4.26 µM
TGI [31]: > 100 µM
GI50 [32]: 6.21 µM
TGI [32]: > 100 µM
GI50 [33]: 4.39 µM
TGI [33]: > 100 µM
GI50 [34]: 4.9 µM
TGI [34]: > 100 µM
GI50 [35]: 3.14 µM
TGI [35]: > 100 µM
GI50 [36]: 2.67 µM
TGI [36]: 8.56 µM
GI50 [37]: 2.75 µM
TGI [37]: 12.1 µM
GI50 [38]: 5.23 µM
TGI [38]: > 100 µM
GI50 [39]: 3.96 µM
TGI [39]: 18.9 µM
GI50 [40]: 2.35 µM
TGI [40]: 6.97 µM
GI50 [41]: 5.53 µM
TGI [41]: > 100 µM
GI50 [42]: 2.83 µM
TGI [42]: > 100 µM
GI50 [43]: 1.95 µM
TGI [43]: 4.69 µM
GI50 [44]: 4.91 µM
TGI [44]: > 100 µM
GI50 [45]: 4.93 µM
TGI [45]: > 100 µM
GI50 [46]: 1.85 µM
TGI [46]: 6.1 µM
GI50 [47]: 0.498 µM
TGI [47]: > 100 µM
GI50 [48]: 3.02 µM
TGI [48]: > 100 µM
GI50 [49]: 4.4 µM
TGI [49]: > 100 µM
GI50 [50]: 5.05 µM
TGI [50]: 37.1 µM
GI50 [51]: 3.97 µM
TGI [51]: 21 µM
GI50 [52]: 8.96 µM
TGI [52]: > 100 µM
GI50 [53]: 3.88 µM
TGI [53]: > 100 µM
GI50 [54]: 1.95 µM
TGI [54]: > 100 µM
